Assay results taken from ChEMBL document CHEMBL3352118, “Inhibitors of Mutant IDH for the Treatment of Cancer” (ACS Med Chem Lett, 2014).

Biological target: Isocitrate dehydrogenase [NADP] cytoplasmic (Homo sapiens, UniProt O75874, R132H)
Assay: Inhibition of IDH1 R132H mutant (unknown origin) using a-ketoglutarate as substrate by fluorescence biochemical assay

Isocitrate dehydrogenase [NADP] cytoplasmic, sequence (O75874 2-414 R132H limits assumed): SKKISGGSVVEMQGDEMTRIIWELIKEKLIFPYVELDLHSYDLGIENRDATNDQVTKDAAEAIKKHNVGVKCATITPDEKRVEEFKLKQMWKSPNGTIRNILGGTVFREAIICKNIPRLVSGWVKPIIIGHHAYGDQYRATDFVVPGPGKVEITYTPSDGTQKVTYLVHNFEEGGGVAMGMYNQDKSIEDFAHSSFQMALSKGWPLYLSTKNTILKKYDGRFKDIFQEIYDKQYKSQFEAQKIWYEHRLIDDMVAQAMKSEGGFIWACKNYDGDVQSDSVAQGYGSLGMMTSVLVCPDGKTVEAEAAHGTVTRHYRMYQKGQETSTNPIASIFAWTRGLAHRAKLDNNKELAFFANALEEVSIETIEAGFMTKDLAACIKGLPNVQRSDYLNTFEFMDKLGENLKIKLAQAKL

IC50 | Compound
< 15.9 nM | C[C@H](Nc1nccc(N2C(=O)OC[C@]2(C)C2CC2)n1)c1ccc(CN2CCC(O)(C(F)(F)F)CC2)cc1F
194 nM | C[C@H](Nc1nccc(N2C(=O)OC[C@]2(C)C2CC2)n1)c1ccc(CN2CCC(N)CC2)c(F)c1
